In patent EP0306698A1, “Condensed diazepinones, processes for their preparation, and medicaments containing these compounds” (Dr. Karl Thomae GmbH, priority 1987, dated 1989):
Where a name gives a salt, the structure may show the parent alone. Read-outs that look alike come from different tables or passages of the source.

Columns and labels:
M1 = M1 activity in the rat: inhibition of blood pressure rise caused by McN-A-343; format: in vivo, Ratte
Procedure: (§1) Die angewandte Methode wurde von Hammer und Giachetti (Life Sciences 31, 2991-2998 (1982)) beschrieben. 5 Minuten nach intravenöser Injektion steigender Dosen der Substanz wurden entweder der rechte Vagus elektrisch stimuliert (Frequenz: 25 Hz; Pulsbreite: 2ms; Reizdauer: 30s; Voltzahl: supramaximal) oder 0,3 mg/kg McN-A-343 in männliche THOM-Ratten intravenös injiziert. Die durch Vagusstimulation hervorgerufene Bradykardie und der durch McN-A-343 verursachte Blutdruckanstieg wurden bestimmt. Die Dosis der Substanzen, die entweder die vagale Bradykardie (M2) oder den Blutdruckanstieg (Mi) um 50% verminderte, wurde graphisch ermittelt. Ergebnisse siehe Tabelle II.

[1] = biological target: T1, muskarinischen Rezeptoren (Tränendrüsen) (Rattus norvegicus, UniProt P08483); settings: in vivo, iv
[2] = tested on: Acetylcholinwirkung auf Bronchien; assay: Inhibition of the acetylcholine effect on bronchi; format: in vivo, Meerschweinchen; settings: for ED50: Cavia porcellus, 5 min, anaesthetised guinea pig, acetylcholine 5 min after test substance, expiratory resistance, read-out: -log ED50 Bronchien (converted)
Text: (§2) Dabei wurde die Herzfrequenz durch extrakorporale Ableitung des EKG, der Ausatemwiderstand nach Konzett-Rößler und die Kontraktion […] an den untersuchten Organen wurden Dosis-Wirkungskurven aufgenommen und daraus -log EDso-Werte bestimmt. Ergebnisse siehe Tabelle V.

[3] = tested on: Acetylcholinwirkung auf Herzfrequenz; assay: Inhibition of the acetylcholine effect on heart rate; format: in vivo, Meerschweinchen; settings: for ED50: Cavia porcellus, 5 min, anaesthetised guinea pig, acetylcholine 5 min after test substance, heart rate
Text: as §2

Speichelsekretion = assay: Inhibition of pilocarpine-induced salivation in the rat; format: in vivo, Ratte; settings: for ED50: Rattus norvegicus, iv, dose reducing saliva volume by 50%, pilocarpine 2 mg/kg s.c., read-out: Speichelsekretionshemmung (Ratte) ED50
Procedure: Nach Lavy und Mulder (Arch. int. Pharmacodyn. 178, 437-445, (1969)) erhielten mit 1,2 g/kg Urethan narkotisierte männliche THOM-Ratten steigende Dosen der Substanz i.v.. Die Speichelsekretion wurde durch s.c. Gabe von 2 mg/kg Pilocarpin ausgelöst. Der Speichel wurde mit Fließpapier aufgesaugt, die von ihm eingenommene Fläche alle 5 Minuten planimetrisch bestimmt. Die Dosis der Substanz, die das Speichelvolumen um 50% verminderte, wurde graphisch ermittelt. Ergebnisse siehe Tabelle 11.

[4] = biological target: T2, muskarinischen Rezeptoren (Ventrikel) (Rattus norvegicus, UniProt P10980); assay: Receptor binding test in vivo (3H-NMS), heart ventricle; design: species or system Ratten; settings: iv
T2 construct: wurden die Tiere getötet, das Herz, die Bronchien und die Tränendrüsen entnommen; from tissue; host or cells: rat heart (atrium, ventricle), in vivo labelling with 3H-NMS
T2 sequence (P10980 1-466): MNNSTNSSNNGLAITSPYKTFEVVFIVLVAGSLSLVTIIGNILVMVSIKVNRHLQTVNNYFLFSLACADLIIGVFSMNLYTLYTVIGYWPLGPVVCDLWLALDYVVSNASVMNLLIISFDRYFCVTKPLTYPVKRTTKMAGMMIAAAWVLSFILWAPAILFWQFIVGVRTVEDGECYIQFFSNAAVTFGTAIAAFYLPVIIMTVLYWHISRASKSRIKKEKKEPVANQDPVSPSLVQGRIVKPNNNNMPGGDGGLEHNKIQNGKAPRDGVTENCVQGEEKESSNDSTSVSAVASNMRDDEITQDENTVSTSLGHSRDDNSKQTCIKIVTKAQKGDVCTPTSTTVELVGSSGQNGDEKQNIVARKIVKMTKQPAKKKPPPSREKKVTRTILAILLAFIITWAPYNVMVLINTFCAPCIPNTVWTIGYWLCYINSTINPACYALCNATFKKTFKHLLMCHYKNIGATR
Procedure: (§3) Für diese Experimente wurden weibliche Ratten mit einem Körpergewicht von ca. 200 g verwendet. Vor Versuchsbeginn wurden die Tiere mit einer Dosis von 1,25 g/kg Urethan narkotisiert. Die Tiere erhielten jeweils die vorgesehene Dosis der Prüfsubstanz durch i.v. Injektion. Nach Ablauf von 15 Minuten wurde auf gleiche Weise 113 ng/kg ^3H-N-Methylscopolamin (^3H-NMS) gegeben. Nach weiteren 15 Minuten wurden die Tiere getötet, das Herz, die Bronchien und die Tränendrüsen entnommen. Diese Organe wurden in Soluene R aufgelöst und die Radioaktivität bestimmt. Diese Messwerte wurden als Totalbindung angenommen. […] Aus diesen Versuchen wurden für die einzelnen Organe IDso-Werte ermittelt. Die IDso-Werte sind Dosen der Prüfsubstanzen, die 50% der spezifischen Bindung von ^3H-NMS an die muskarinischen Rezeptoren der jeweiligen Organe hemmten.

[5] = tested on: Acetylcholinwirkung auf Blase; assay: Inhibition of the acetylcholine effect on bladder; format: in vivo, Meerschweinchen; settings: for ED50: Cavia porcellus, 5 min, anaesthetised guinea pig, acetylcholine 5 min after test substance, bladder contraction, read-out: -log ED50 Blase (converted)
Text: as §2

[6] = biological target: T3, muskarinischen Rezeptoren (Atrium) (Rattus norvegicus, UniProt P10980); assay: Receptor binding test in vivo (3H-NMS), heart atrium; design: species or system Ratten
T3 construct: wurden die Tiere getötet, das Herz, die Bronchien und die Tränendrüsen entnommen; from tissue; host or cells: rat heart (atrium, ventricle), in vivo labelling with 3H-NMS
T3 sequence (P10980 1-466): T2 sequence (P10980 1-466)
Text: as §3, with “Nach Ablauf von 15 Minuten wurde auf gleiche Weise 113 ng/kg ^3H-N-Methylscopolamin (^3H-NMS) gegeben.” left out

[7] = biological target: T4, muscarinischen Rezeptoren (Herz) (Rattus norvegicus, UniProt P10980); assay: biochemical; format: binding, Ratte; settings: whole heart homogenate 1:400, 0,3 nmolar 3H-NMS, 30°C, 45 min; read-out: Rezeptor-Bindungs-Tests -log IC50 Herz (converted)
T4 construct: Das Gesamtherz wurde mit einer Schere zerkleinert; Alle Organe wurden abschließend in einem Potter homogenisiert; from tissue; host or cells: rat whole heart homogenate
T4 sequence (P10980 1-466): T2 sequence (P10980 1-466)
Text: Als Organspender dienten männliche Sprague-Dawley-Ratten mit 180-220 g Körpergewicht. Nach Entnahme von Herz und Submandibularis wurden alle weiteren Schritte in eiskaltem Hepes-HCI-Puffer (pH 7,4; 100 m molar NaCI, 10 m molar MgCI2) vorgenommen. Das Gesamtherz wurde mit einer Schere zerkleinert. Alle Organe wurden abschließend in einem Potter homogenisiert.
Für den Bindungstest wurden die Organhomogenate in folgender Weise verdünnt: • Gesamtherz 1:400 • Submandibularis 1:400
Die Inkubation der Organhomogenate erfolgte bei einer bestimmten Konzentration des Radioliganden und einer Konzentrationsreihe der nichtradioaktiven Testsubstanzen im Eppendorf-Zentrifugenröhrchen bei 30°C. Die Inkubationsdauer betrug 45 Minuten. Als Radioligand wurde 0,3 nmolar ^3H-N-Methylscopolamin (^3H-NMS) verwendet. Die Inkubation wurde durch Zugabe von eiskaltem Puffer mit nachfolgender Vakuumfiltration beendet. Die Filter wurden mit kaltem Puffer gespült und ihre Radioaktivität bestimmt. Sie repräsentiert die Summe von spezifischer und unspezifischer Bindung von ^3H-NMS. Der Anteil der unspezifischen Bindung wurde definiert als jene Radioaktivität die in Anwesenheit von 1 u. molar Quinciidinylbenzilat gebunden wurde. Es wurden immer Vierfachbestimmungen vorgenommen. Die ICso-Werte der nicht markierten Testsubstanzen wurden graphisch bestimmt. Sie repräsentieren jene Konzentration der Testsubstanz, bei welcher die spezifische Bindung von ^3H-NMS an die muscarinischen Rezeptoren in den verschiedenen Organen um 50 % gehemmt wurde.

Solubility in water = format: physicochemical; settings: for solubility: water, read-out: Löslichkeit in Wasser; for Löslichkeit in Wasser: result in words
M2 = M2 activity in the rat: inhibition of bradycardia induced by vagus stimulation; format: in vivo, Ratte; settings: i.v.; dose reducing vagal bradycardia by 50%; 5 min after injection
Procedure: as §1

[8] = biological target: T1, muskarinischen Rezeptoren (Tränendrüsen); assay: in vivo; settings: iv, 0.5 h, read-out: ID50 Tränendrüsen
[9] = i.v., dose reducing McN-A-343 (0,3 mg/kg) blood pressure rise by 50%, 5 min
[10] = ratio of ED50 salivation inhibition to ED50 M2 activity, rat

T1 sequence (P08483 whole entry): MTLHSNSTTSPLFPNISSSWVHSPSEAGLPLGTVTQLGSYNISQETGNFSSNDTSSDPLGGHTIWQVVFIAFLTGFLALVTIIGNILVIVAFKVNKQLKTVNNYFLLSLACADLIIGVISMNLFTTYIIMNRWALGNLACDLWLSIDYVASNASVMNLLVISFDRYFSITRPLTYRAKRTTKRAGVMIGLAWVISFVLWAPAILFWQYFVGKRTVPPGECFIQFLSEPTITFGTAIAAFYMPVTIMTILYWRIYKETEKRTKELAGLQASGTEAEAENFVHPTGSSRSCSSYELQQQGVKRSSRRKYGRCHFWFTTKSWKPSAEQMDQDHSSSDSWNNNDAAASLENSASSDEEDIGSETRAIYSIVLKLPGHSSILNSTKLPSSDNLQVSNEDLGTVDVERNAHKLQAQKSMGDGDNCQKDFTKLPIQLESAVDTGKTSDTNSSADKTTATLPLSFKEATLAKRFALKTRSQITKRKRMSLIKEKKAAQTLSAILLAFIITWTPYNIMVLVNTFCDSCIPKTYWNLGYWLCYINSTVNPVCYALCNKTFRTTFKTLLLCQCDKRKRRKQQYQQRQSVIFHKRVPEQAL

For `CN1C2CCC1CC(OC(=O)C(CO)c1ccccc1)C2` (racemic) [Z, Atropin, reference compound], the “M1-Aktivität (Ratte) ED50” value (M1; in vivo) was 16 µg/kg, the “ID50 Tränendrüsen” value [1] was 0,2 mg/kg and the “-log ED50 Bronchien” value ([2]; in vivo) was 7,96 Molkg^-1. The “-log ED50 Herz” value ([3]; in vivo) was 7,70 Molkg^-1, the “Verhältnis Speichelsekretionshemmung zu M2-Aktivität” value (Speichelsekretion; in vivo) was 2,2 and the “ID50 Herz Ventrikel” value ([4]; in vivo) was 0,03 mg/kg. The “-log ED50 Blase” value ([5]; in vivo) was 7,03 Molkg^-1, the “Verhältnis der ID50 Tränendrüse zu ID50 des Atrium” value ([6]; in vivo) was 1,5 and the “ID50 Herz Atrium” value ([6]; in vivo, iv) was 0,08 mg/kg.
`O=C1Nc2cccnc2N(C(=O)N2CCCC(CCN3CCCCCC3)C2)c2ccccc21` (stereo not drawn) [F, 5,11-Dihydro-11-[[3-[2-(hexahydro-1H-1-azepinyl)ethyl]-1-piperidinyl]carbonyl]-6H-pyrido[23-b]-[1,4]benzodiazepin-6-on-hydrochlorid] showed an IC50 [7] of 3.02 nM, an ED50 [2] of 0.0398 µmol/kg and an ED50 [3] of 0.0162 µmol/kg. It also gave an ED50 [5] of 0.38 µmol/kg.
With `Cl.O=C1Nc2cccnc2N(C(=O)N2CCCC(CCCN3CCCC3)C2)c2ccccc21` (stereo not drawn) [B, 5,11-Dihydro-11-[[3-[3-(1-pyrrolidinyl)propyl]-1-piperidinyl]carbonyl]-6H-pyrido[2,3-b][1,4]-benzodiazepin-6-on-hydrochlorid] the IC50 [7] was 10 nM, the ED50 [2] was 0.0871 µmol/kg and the ED50 [3] was 0.0661 µmol/kg. The solubility (Solubility in water; hydrochloride salt) was ~3000 µg/mL and the ED50 [5] was 0.692 µmol/kg.
With `CS(=O)(=O)O.O=C1Nc2cccnc2N(C(=O)N2CCCC(CCN3CCCCC3)C2)c2ccccc21` (stereo not drawn) [C, 5,11-Dihydro-11-[[3-[2-(1-piperidinyl)ethyl]-1-piperidinyl]carbonyl]-6H-pyrido[2,3-b][1,4]-benzodiazepin-6-on-methansulfonat] the “M1-Aktivität (Ratte) ED50” value (M1; [9]) was 39 µg/kg, the IC50 [7] was 3.02 nM and the ED50 [2] was 0.0417 µmol/kg. For the same molecule, the ED50 [3] was 0.0427 µmol/kg, the ED50 (Speichelsekretion) was 0.058 mg/kg and the “Verhältnis Speichelsekretionshemmung zu M2-Aktivität” value (Speichelsekretion; [10]) was 7,6. The “M2-Aktivität (Ratte) ED50” value (M2) was 7,6 µg/kg and the ED50 [5] was 0.355 µmol/kg.
For `O=C1Nc2ccccc2N(C(=O)N2CCCC(CCN3CCCCC3)C2)c2ncccc21` (stereo not drawn) [G, 6,11-Dihydro-11-[[3-[2-(1-piperidinyl)ethyl]-1-piperidinyl]carbonyl]-5H-pyrido[23-b][1,5]-benzodiazepin-5-on], the “M1-Aktivität (Ratte) ED50” value (M1; [9]) was 7,16 µg/kg, the IC50 [7] was 3.98 nM and the ED50 [2] was 0.0263 µmol/kg. The ED50 [3] was 0.0148 µmol/kg, the ED50 (Speichelsekretion) was 0.00683 mg/kg and the “Verhältnis Speichelsekretionshemmung zu M2-Aktivität” value (Speichelsekretion; [10]) was 20,00. For the same molecule, the “M2-Aktivität (Ratte) ED50” value (M2) was 8,13 µg/kg and the ED50 [5] was 0.302 µmol/kg.
With `CN(CCC1CCCN(C(=O)N2c3ccccc3C(=O)Nc3cccnc32)C1)C1CCCC1` (stereo not drawn) [E, 11-[[3-[2-[(Cyclopentyl)methylamino]ethyl]-1-piperidinyl]carbonyl]-5,11-dihydro-6H-pyrido[2,3-b]-[1,4]-benzodiazepin-6-on-hydrochlorid] the IC50 [7] was 3.02 nM, the ED50 [2] was 0.0977 µmol/kg and the ED50 [3] was 0.0813 µmol/kg. For the same molecule, the ED50 [5] was 0.891 µmol/kg.
For `CN1CCN(CC(=O)N2c3ccccc3C(=O)Nc3cccnc32)CC1` [Y, 5,11-Dihydro-11-[(4-methyl-1-piperazinyl)acetyl]-6H-pyrido[2.3-b][1,4]benzodiazepin-6-on, reference compound], the ED50 [2] was 0.269 µmol/kg, the ED50 [3] was 1.41 µmol/kg and the ED50 (Speichelsekretion) was 0.084 mg/kg. It also gave an ED50 [5] of 4.37 µmol/kg.
With `CCN(CC)CCCCC1CCCCN1C(=O)N1c2ccccc2C(=O)Nc2cccnc21` (stereo not drawn) [Beispiel 4, 11-[[2-[4-(Diethyiamino)butyl]-1-piperidinyl]carbonyl]-5,11-dihydro-6H-pyrido[2,3-b][1,4]benzodiazepin-6-on] the “Löslichkeit in Wasser” value (Solubility in water; dihydrochloride) was “wasserlösliche”.
With `O=C1Nc2cccnc2N(C(=O)N2CCCC(CCCN3CCCCC3)C2)c2ccccc21` (stereo not drawn) [A, 5,11-Dihydro-11-[[3-[3-(1-piperidinyl)propyl]-1-piperidinyl]carbonyl]-6H-pyrido[2,3-b][1,4]-benzodiazepin-6-on] the “M1-Aktivität (Ratte) ED50” value (M1; [9]) was 49 µg/kg, the IC50 [7] was 2 nM and the ED50 [2] was 0.117 µmol/kg. For the same molecule, the ED50 [3] was 0.0871 µmol/kg, the ED50 (Speichelsekretion) was 0.035 mg/kg and the “Verhältnis Speichelsekretionshemmung zu M2-Aktivität” value (Speichelsekretion; [10]) was 5. For the same molecule, the “Löslichkeit in Wasser” value (Solubility in water; methanesulfonate salt) was “leicht löslich”, the solubility (Solubility in water; hydrochloride salt) was ~2000 µg/mL and the solubility (Solubility in water; salt with N-Cyclohexylsulfamidsäure) was ~10000 µg/mL. For the same molecule, the “M2-Aktivität (Ratte) ED50” value (M2) was 6,9 µg/kg, the ED50 [8] was 0.2 mg/kg and the ED50 [5] was 1.35 µmol/kg. The ED50 ([6]; rat, iv, 0.5 h; read-out: ID50 Herz Atrium) was 0.01 mg/kg.
For `CCN(CC)CC1CCCCN1CC(=O)N1c2ccccc2C(=O)Nc2cccnc21` (stereo not drawn) [X, 11-[[2-[(Diethylamino)methyl]-1-piperidinyl]acetyl]-5,11-dihydro-6H-pyrido[2,3-b][1,4]-benzodiazepin-6-on, reference compound], the “M1-Aktivität (Ratte) ED50” value (M1; [9]) was 988 µg/kg, the IC50 [7] was 151 nM and the ED50 [2] was 2.63 µmol/kg. The ED50 [3] was 1.45 µmol/kg, the “M2-Aktivität (Ratte) ED50” value (M2) was 160 µg/kg and the ED50 ([4]; rat, 0.5 h, read-out: ID50 Herz Ventrikel) was 0.6 mg/kg. For the same molecule, the ED50 [8] was > 30 mg/kg, the ED50 [5] was 18.6 µmol/kg and the ED50 ([6]; rat, iv, 0.5 h, read-out: ID50 Herz Atrium) was 1 mg/kg.
For `O=C1Nc2cccnc2N(C(=O)N2CCCC(CCN3CCCC3)C2)c2ccccc21` (stereo not drawn) [D, 5,11-Dihydro-11-[[3-(2-(1-pyrrolidinyl)ethyl]-1-piperidinyl]carbonyl]-6H-pyrido[2,3-b][1,4]-benzodiazepin-6-on-hydrochlorid], the IC50 [7] was 6.03 nM, the ED50 [2] was 0.0324 µmol/kg and the ED50 [3] was 0.0479 µmol/kg. For the same molecule, the ED50 [5] was 0.708 µmol/kg.
